Reference: publication PMC11240139, “Exploring the antitumor potential of novel quinoline derivatives via tubulin polymerization inhibition in breast cancer; design, synthesis and molecular docking” (RSC Advances, 2024)

How the values were obtained:
Test in all cases: NCI-60 SRB cytotoxicity screen
Format in all cases: cell-based
UACC-257 (melanoma) = settings: Homo sapiens; UACC-257, single dose 10 μM; read-out: growth inhibition (GI%)
[1] = tested on: A549/ATCC (non-small cell lung cancer); settings: Homo sapiens, single dose 10 μM, read-out: growth inhibition (GI%)
[2] = tested on: NCI-H522 (non-small cell lung cancer); settings: Homo sapiens; NCI-H522, single dose 10 μM; read-out: growth inhibition (GI%)
[3] = tested on: NCI-H23 (non-small cell lung cancer); settings: Homo sapiens; NCI-H23, single dose 10 μM; read-out: growth inhibition (GI%)
[4] = tested on: HOP-62 (non-small cell lung cancer); settings: Homo sapiens; HOP-62, single dose 10 μM; read-out: growth inhibition (GI%)
HS 578T (breast cancer) = settings: Homo sapiens, single dose 10 μM, read-out: growth inhibition (GI%)
SK-MEL-28 (melanoma) = settings: Homo sapiens; SK-MEL-28, single dose 10 μM; read-out: growth inhibition (GI%)
SK-OV-3 (ovarian cancer) = settings: Homo sapiens; SK-OV-3, single dose 10 μM; read-out: growth inhibition (GI%)
UO-31 (renal cancer) = settings: Homo sapiens; UO-31, single dose 10 μM; read-out: growth inhibition (GI%)
MOLT-4 (leukemia) = settings: Homo sapiens; MOLT-4, single dose 10 μM; read-out: growth inhibition (GI%)
SF-539 (CNS cancer) = settings: Homo sapiens; SF-539, single dose 10 μM; read-out: growth inhibition (GI%)
K-562 (leukemia) = settings: Homo sapiens; K-652 [sic], single dose 10 μM; read-out: growth inhibition (GI%)
HCT-15 (colon cancer) = settings: Homo sapiens; HCT-15, single dose 10 μM; read-out: growth inhibition (GI%)
[5] = tested on: MDA-MB-231/ATCC (breast cancer); settings: Homo sapiens, MDA-MB-231, read-out: growth inhibition (GI%);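 also: growth inhibition in percent at a single 10 µM dose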
A498 (renal cancer) = settings: Homo sapiens; A498, single dose 10 μM; read-out: growth inhibition (GI%)
RPMI-8226 (leukemia) = settings: Homo sapiens; RPMI-8226, single dose 10 μM; read-out: growth inhibition (GI%)
MCF7 (breast cancer) = settings: Homo sapiens; MCF7, single dose 10 μM; read-out: growth inhibition (GI%)
786-0 (renal cancer) = settings: Homo sapiens; 786-0, single dose 10 μM; read-out: growth inhibition (GI%)
KM12 (colon cancer) = settings: Homo sapiens; KM12, single dose 10 μM; read-out: growth inhibition (GI%)
CCRF-CEM (leukemia) = settings: Homo sapiens, single dose 10 μM, read-out: growth inhibition (GI%)
UACC-62 (melanoma) = settings: Homo sapiens; UACC-62, single dose 10 μM; read-out: growth inhibition (GI%)
BT-549 (breast cancer) = settings: Homo sapiens; BT-549, single dose 10 μM; read-out: growth inhibition (GI%)
SF-295 (CNS cancer) = settings: Homo sapiens; SF-295, single dose 10 μM; read-out: growth inhibition (GI%)
[6] = tested on: EKVX (non-small cell lung cancer); settings: Homo sapiens, single dose 10 μM, read-out: growth inhibition (GI%)
[7] = tested on: NCI-H460 (non-small cell lung cancer); settings: Homo sapiens; NCI-H460, single dose 10 μM; read-out: growth inhibition (GI%)
[8] = tested on: NCI-H226 (non-small cell lung cancer); settings: Homo sapiens; NCI-H226, single dose 10 μM; read-out: growth inhibition (GI%)
OVCAR-8 (ovarian cancer) = settings: Homo sapiens; OVCAR-8, single dose 10 μM; read-out: growth inhibition (GI%)
SNB-75 (CNS cancer) = settings: Homo sapiens, SNB-75, SNB-75, single dose 10 μM; read-out: growth inhibition (GI%)
HT29 (colon cancer) = settings: Homo sapiens, HT-29; HT29, single dose 10 μM; read-out: growth inhibition (GI%)
HL-60(TB) (leukemia) = settings: Homo sapiens, single dose 10 μM, read-out: growth inhibition (GI%)
PC-3 (prostate cancer) = settings: PC-3, single dose 10 μM; read-out: growth inhibition (GI%)
T-47D (breast cancer) = settings: Homo sapiens, T47D, single dose 10 μM, read-out: growth inhibition (GI%)
ACHN (renal cancer) = settings: Homo sapiens, single dose 10 μM, read-out: growth inhibition (GI%)
IGROV1 (ovarian cancer) = settings: Homo sapiens, IGROV-1; IGROV1, single dose 10 μM; read-out: growth inhibition (GI%)
[9] = tested on: NCI/ADR-RES (ovarian cancer); settings: Homo sapiens, single dose 10 μM, read-out: growth inhibition (GI%)
MALME-3M (melanoma) = settings: Homo sapiens, single dose 10 μM, read-out: growth inhibition (GI%)

| Structure (SMILES) | inhibition at 10 µM (UACC-257 (melanoma)) [%] | inhibition at 10 µM [1] [%] | inhibition at 10 µM [2] [%] | inhibition at 10 µM [3] [%] | inhibition at 10 µM [4] [%] | inhibition at 10 µM (HS 578T (breast cancer)) [%] | inhibition at 10 µM (SK-MEL-28 (melanoma)) [%] | inhibition at 10 µM (SK-OV-3 (ovarian cancer)) [%] | inhibition at 10 µM (UO-31 (renal cancer)) [%] | inhibition at 10 µM (MOLT-4 (leukemia)) [%] | inhibition at 10 µM (SF-539 (CNS cancer)) [%] | inhibition at 10 µM (K-562 (leukemia)) [%] | inhibition at 10 µM (HCT-15 (colon cancer)) [%] | inhibition at 10 µM [5] [%] | inhibition at 10 µM (A498 (renal cancer)) [%] | inhibition at 10 µM (RPMI-8226 (leukemia)) [%] | inhibition at 10 µM (MCF7 (breast cancer)) [%] | inhibition at 10 µM (786-0 (renal cancer)) [%] | inhibition at 10 µM (KM12 (colon cancer)) [%] | inhibition at 10 µM (CCRF-CEM (leukemia)) [%] | also measured |
| --- | --- | --- | --- | --- | --- | --- | --- | --- | --- | --- | --- | --- | --- | --- | --- | --- | --- | --- | --- | --- | --- |
| CCc1cccc2cc(C3C=C(c4ccc(OC)cc4)NC(=S)N3)c(Cl)nc12 (stereo not drawn) [Compound 6a, 4-(2-Chloro-8-ethylquinolin-3-yl)-6-(4-methoxyphenyl)-3,4-dihydropyrimidine-2(1H)-thione] | < 10 | < 10 | < 10 | < 10 | < 10 | < 10 | < 10 | 14.9 | 18.6 | < 10 | < 10 | < 10 | < 10 | < 10 | < 10 | < 10 | < 10 | < 10 | < 10 | < 10 | inhibition at 10 µM (UACC-62 (melanoma)): 10.4%; inhibition at 10 µM (BT-549 (breast cancer)): < 10%; inhibition at 10 µM (SF-295 (CNS cancer)): < 10%; inhibition at 10 µM [6]: < 10%; inhibition at 10 µM [7]: < 10%; inhibition at 10 µM [8]: < 10%; inhibition at 10 µM (OVCAR-8 (ovarian cancer)): < 10%; inhibition at 10 µM (SNB-75 (CNS cancer)): 14.9%; inhibition at 10 µM (HT29 (colon cancer)): < 10%; inhibition at 10 µM (HL-60(TB) (leukemia)): < 10%; inhibition at 10 µM (PC-3 (prostate cancer)): < 10%; inhibition at 10 µM (T-47D (breast cancer)): < 10%; inhibition at 10 µM (ACHN (renal cancer)): < 10%; inhibition at 10 µM (IGROV1 (ovarian cancer)): < 10%; inhibition at 10 µM [9]: < 10%; inhibition at 10 µM (MALME-3M (melanoma)): < 10% |
| CCc1cccc2cc(-c3cc(-c4ccc(Br)cc4)[nH]c(=O)c3C#N)c(Cl)nc12 [Compound 4e, 6-(4-Bromophenyl)-4-(2-chloro-8-ethylquinolin-3-yl)-2-oxo-1,2-dihydropyridine-3-carbonitrile] | < 10 | < 10 | < 10 | < 10 | < 10 | < 10 | < 10 | 11.7 | 17.8 | < 10 | < 10 | 33.5 | < 10 | < 10 | < 10 | < 10 | 20.6 | < 10 | < 10 | < 10 | inhibition at 10 µM (UACC-62 (melanoma)): < 10%; inhibition at 10 µM (BT-549 (breast cancer)): 27.7%; inhibition at 10 µM (SF-295 (CNS cancer)): < 10%; inhibition at 10 µM [6]: < 10%; inhibition at 10 µM [7]: < 10%; inhibition at 10 µM [8]: < 10%; inhibition at 10 µM (OVCAR-8 (ovarian cancer)): < 10%; inhibition at 10 µM (SNB-75 (CNS cancer)): < 10%; inhibition at 10 µM (HT29 (colon cancer)): < 10%; inhibition at 10 µM (HL-60(TB) (leukemia)): < 10%; inhibition at 10 µM (PC-3 (prostate cancer)): < 10%; inhibition at 10 µM (T-47D (breast cancer)): < 10%; inhibition at 10 µM (ACHN (renal cancer)): < 10%; inhibition at 10 µM (IGROV1 (ovarian cancer)): < 10%; inhibition at 10 µM [9]: < 10%; inhibition at 10 µM (MALME-3M (melanoma)): < 10% |
